{"source": "patent US20200046788A1", "about": "“COMPOSITIONS AND METHODS FOR TREATMENT OF INTESTINAL INFLAMMATION AND COLON CANCER” (University of Louisville Research Foundation, Inc., priority 2016, published 2020)", "key": {"BMDCs": {"test_system": "BMDCs", "procedure": "(§1) Generation of mouse and human DCs. For the generation of mouse DCs, bone marrow cells were harvested from the femurs and tibias of mice and cultured in 6-well tissue culture plates (Costar) for 8 days in complete medium supplemented with 20 ng/ml GM-CSF and 10 ng/ml IL-4. BDNs, BDN-derived lipid or SFN was added to some wells on day 0. To obtain human DCs, peripheral blood mononuclear cells were isolated from healthy donors by Ficoll-Hypaque Plus (GE Healthcare). These studies were approved by the Institutional Review Board of University of Louisville. Monocytes were purified by a discontinuous Percoll gradient (GE Healthcare) and positive selection with the Monocyte Isolation kit (purity, >90%; Miltenyi Biotec). Monocytes were cultured in RPMI-1640 complete medium supplemented with 10% (vol/vol) heat-inactivated PCS, gentamicin ([…]), 2-mercaptoethanol (50 μM) and L-glutamine (2 mM; all from Gibco) containing IL-4 (5 ng/ml; Sigma) and recombinant human GM-CSF (35 ng/ml; Sigma) with or without SFN (10 μM). In some experiments, DCs were exposed for 24 h to LPS (100 ng/ml) with or without SFN."}, "CD4+ T cells": {"test_system": "CD4+ T cells", "procedure": "as §1"}, "DSS-induced colitis": {"test_system": "DSS-induced colitis", "experiment": "Transfer of BMDCs treated with LN SFN knock-out / knock-in nanoparticles into mice with DSS colitis", "type": "in vivo, mouse", "procedure": "FIGS. 7A-7F include graphs and images showing that BDN SFN protects colitis by inducing regulatory DCs, including graphs and images showing: (FIG. 7A) the lipids extracted from BDN-derived liposome-like nanoparticles (LN) or LN with SFN knock-out (LN-SFN^−/− or knock-in (LN-SFN^+/+) and a standard SFN were separated on a thin-layer chromatography plate and developed, where a representative image was scanned using an Odyssey Scanner; (FIGS. 7B-7D) BMDCs that were treated with CBA (20 μg/ml) for 24-48 hr in the presence of DMSO, LN-SFN^−/− or LN-SFN^+/+ and were injected i.v. […] (FIG. 7E) cytokine analysis by qRT-PCR of RNA recovered from colonic LPL1; and (FIG. 7F) the cell number of CD11b^+ DCs isolated from colon and MLN in DSS-induced colitis after adoptive transfer, where data are mean±SEM. (n=5), *P<0.05, **P<0.01 (Student's t-test). Lipid extraction, TLC and lipidomic analysis. Total lipid extraction from BDNs was performed according to the method of Bligh and Dyer, and the lipids were dissolved in chloroform or methanol for analysis. […] Developed plates were initially air-dried, then sprayed with CuSO4-phosphoric acid reagent (10% CuSO4 in 8% phosphoric acid), and followed by charring at 100° C. for 10 min. […] Total lipids were determined using the phosphate assay as described previously. […] Colitis was assessed as described above."}, "MC38 colon cancer cells": {"test_system": "MC38 colon cancer cells", "experiment": "MC38 colon cancer cells treated with SFN or BDN-derived lipids (RT-PCR)", "type": "cell-based, mouse", "procedure": "RNA extraction and PCR. Total RNA was isolated from the small intestine and colon or tumor tissue using the Qiagen RNeasy RNA isolation Kit and was used to synthesize cDNA. RNA (1 μg) was reverse-transcribed with Superscript III and random primers (Invitrogen). For quantitation of genes of interest, cDNA samples were amplified in a CFX96 Realtime System (Bio-Rad Laboratories, Hercules, Calif., USA) using SYBR Green Master Mix (Invitrogen) and specific primers (Table 2) according to the manufacturer's instructions. Fold changes in mRNA expression between treatments and controls were determined by the […] as described. Results for each sample were normalized to the concentration of GAPDH mRNA measured in the same samples and expressed as fold increase over baseline levels, which are set at a value of 1. Differences between groups were determined using a two-sided Student's t-test and one-way ANOVA. Error bars on plots represent±SEM, unless otherwise noted. All primers were purchased from Eurofins MWG Operon."}, "[1]": {"test_system": "human monocyte-derived DCs", "details": "LPS 100 ng/ml, western blot", "procedure": "Western blot analysis. […] Images have been cropped for presentation.\nas §1"}, "intestinal tumorigenesis": {"test_system": "intestinal tumorigenesis", "procedure": "Polyamine pools and Enzyme analyses. Tumor tissue was removed from intestine and was snap-frozen and stored at −70° C. Following removal of tumors, the normal small intestinal and colonic mucosa was scraped with a glass slide and snap-frozen. Frozen tissues were crushed into a fine powder. Specimens were homogenized in 1.2N perchloric acid and centrifuged to obtain the soluble supernatant extracts for polyamine analyses. Intracellular polyamine pools and acetylated polyamine pools were extracted with 1.2N perchloric acid, dansylated with dansyl chloride. The derivatized polyamines were separated on and analyzed using high-performance liquid chromatography on 150×4.6 mm ZORBAX SB-C18 column (Agilent) using methods described elsewhere. Polyamines were also quantitated by ELISA kit (Mybiosource, # MBS094198). For analysis of the enzyme activity, intestinal mucosal samples (4 mm^2) were immediately transferred to vials containing 0.5 ml of an ice-cold buffer [50 mM Tris-HCl (pH 7.5), 0.1 mM EDTA, and 0.1 mM pyridoxal phosphate)] and then homogenized and centrifuged. SSAT and ODC activities were determined by using C-labeled substrates and scintillation counting of end products produced as described previously (31) (or Cancer research SSAT mice)."}, "[2]": {"details": "SFN 10 μM + GM-CSF vs GM-CSF alone"}}}
{"smiles": "C[S+]([O-])CCCCN=C=S", "note": "(stereo not drawn) [SFN, Sulforaphane]", "values": [{"measurement": "IL-10 production (ELISA)", "setting": "BMDCs; LPS 18 h, vs LPS alone", "result": "more IL-10"}, {"measurement": "IL-12, IL-23 production (ELISA)", "setting": "BMDCs; LPS 18 h, vs LPS alone", "result": "produced less IL-12, IL-23"}, {"measurement": "expression of CD11c", "setting": "BMDCs; [2]", "result": "lower expression of CD11c"}, {"measurement": "expression of PD-L1", "setting": "BMDCs; [2]", "result": "higher expression of PD-L1"}, {"measurement": "CD25 on CD4+ T cells induced by DC^SFN", "setting": "CD4+ T cells; vs DC^DMSO", "result": "lower expression"}, {"measurement": "PD-1 on CD4+ T cells induced by DC^SFN", "setting": "CD4+ T cells; vs DC^DMSO", "result": "higher levels"}, {"measurement": "IFN-γ production by CD4+ T cells primed with LPS-DC^SFN", "setting": "CD4+ T cells; vs LPS-treated DC^DMSO", "result": "less IFN-γ"}, {"measurement": "IL-10 production by CD4+ T cells primed with LPS-DC^SFN", "setting": "CD4+ T cells; vs LPS-treated DC^DMSO", "result": "more IL-10"}, {"measurement": "IFN-γ production by CD4 T cells primed with DC^SFN", "setting": "CD4+ T cells; without LPS, vs DC^DMSO", "result": "negligible production of IFN-γ"}, {"measurement": "numbers of transferred BMDC reaching the MLNs and colon", "setting": "DSS-induced colitis", "result": "lower numbers"}, {"measurement": "expression of CSN8 and ODC", "setting": "MC38 colon cancer cells; RT-PCR, vs DMSO", "result": "inhibited"}, {"measurement": "expression of Nrf2 and SSAT1", "setting": "MC38 colon cancer cells; RT-PCR, vs DMSO", "result": "strongly activated"}, {"measurement": "increase in SSAT1 caused by SFN", "setting": "MC38 colon cancer cells; knockdown of both Nrf2 and CSN8", "result": "significantly inhibited the increase"}, {"measurement": "phosphorylation of AMPK at Thr172", "setting": "[1]", "result": "increased phosphorylation of AMPK at Thr172"}, {"measurement": "phosphorylation of S6 and p70S6K", "setting": "[1]", "result": "decreased S6 phosphorylation"}]}
{"smiles": "NCCCCN", "note": "[putrescine]", "values": [{"measurement": "polyamines pool in the small intestine", "setting": "intestinal tumorigenesis; 1% in drinking water", "result": "large increase"}, {"measurement": "tumor number", "setting": "intestinal tumorigenesis; APC^Min/+CSN8^fl/fl mice, vs control mice", "result": "an increase, but not statistically significant increase"}, {"measurement": "epithelial cell proliferation (Ki-67) in the small intestines", "setting": "intestinal tumorigenesis; APC^Min/+CSN8^ΔIEC", "result": "stimulated"}, {"measurement": "polyp numbers in the small intestines", "setting": "intestinal tumorigenesis; APC^Min/+CSN8^ΔIEC", "result": "strikingly increased"}, {"measurement": "expression of nuclear Stat3, c-Myc and p21^(Cip1/WAF1)", "setting": "intestinal tumorigenesis; APC^Min/+CSN8^ΔIEC mice, to that seen in APC^Min/+CSN8^fl/fl", "result": "restored the expression"}, {"measurement": "polyp number in the colon", "setting": "intestinal tumorigenesis; mouse, in vivo", "result": "no effect"}]}
